In PubChem BioAssay AID1249 (Columbia University Molecular Screening Center, 2008):
Activity calls are given as the source filed them. How the calls were made is not given here.

Assay: modifiers of cytoskeleton assembly, confirmation, imaging, high-content imaging, retest and dose response (AID 1249);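 further: compound exposure lasted 24 h before fixation; plate controls were untreated cells for no effect and reference compound treated cells for full effect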
Conditions: cell-based imaging, cytoskeleton assembly phenotype, high content; at 2 µM; hits give high values

In the case of `Cc1ccc(O)c(NC(=O)C2CC(c3c(F)cccc3Cl)=NO2)c1` (centres undefined), the inhibition is reported as -4.4% (inactive).

For `CN(Cc1ccccc1)S(=O)(=O)c1ccc(NC(=S)NC(=O)C2CCCC2)cc1`, the inhibition was -1.4% (inactive).

For `O=C(Nc1ccccc1)N1CCC(c2ccccc2)C1` (centres undefined), the inhibition was -9.2% (inactive).

For `COc1ccc(CC(=O)Nc2ccc(-c3noc(-c4cccc(OC)c4)n3)cc2)cc1`, the inhibition was 13.6% (inactive).

In the case of `Cc1ccc2nc(CCc3nc4ccc(C)cc4o3)oc2c1`, the inhibition is reported as 5.4% (inactive).

With `COc1cccc(/C=N/Nc2nc(Nc3ccccc3)nc(-n3nc(C)cc3C)n2)c1O` the inhibition was 1.2% (inactive).

With `C=CCNC(=O)c1c(Cl)cccc1Cl` the inhibition was -5.1% (inactive).

With `COCCCNC(=S)NC1CC2CCCC(C1)N2Cc1ccco1` (centres undefined) the inhibition was 4.7% (inactive).

With `CCn1c(SCC(=O)Nc2cc(C)on2)nnc1-c1ccccc1` the inhibition was 0.6% (inactive).

For `CC(C)(C)c1ccc(C(=O)N/N=C/c2cccc(Cl)c2)cc1`, the inhibition was 7.3% (inactive).

For `Cc1ccccc1CS(=O)(=O)c1nnc([C@H](Cc2ccccc2)NC(=O)OC(C)(C)C)o1`, the inhibition was 0.1% (inactive).

With `CCNc1nc(NCC)n2c(SCc3ccc(F)cc3)nnc2n1` the inhibition was 4.8% (inactive).

In the case of `NCCN1CCN(CCN)CC1`, the inhibition is reported as -3% (inactive).

In the case of `CN=c1sc2ccccc2n1CC(O)COc1ccccc1` (centres undefined), the inhibition is reported as -6.5% (inactive).

In the case of `O=C(CCS(=O)(=O)c1ccccc1)Nc1nc2c(s1)COc1ccccc1-2`, the inhibition is reported as 6.6% (inactive).

With `COc1ccc(-c2n[nH]c(=S)n2C2CCCCC2)cc1` the inhibition was 5.3% (inactive).

In the case of `OCCN=C1CCCc2c1[nH]c1ccc(Br)cc21`, the inhibition is reported as -20.7% (inactive).

With `O=C(COc1ccccc1)N1CCN(CC(O)COc2ccccc2)CC1` (centres undefined) the inhibition was 11.3% (inactive).

With `CC1Cc2cc(-c3csc(NC(=O)Cc4cccs4)n3)ccc2N1S(C)(=O)=O` (centres undefined) the inhibition was -0.1% (inactive).

For `CC(C)CN(C(=O)COC(=O)CCc1c[nH]c2ccccc12)C1CCS(=O)(=O)C1` (centres undefined), the inhibition was -23.6% (inactive).

In the case of `CCn1c(=O)cc(OCC(=O)NCc2ccco2)c2ccccc21`, the inhibition is reported as -5% (inactive).

With `CC(=O)c1cccc(NC(=O)c2cc(-c3ccc(F)cc3)on2)c1` the inhibition was 0.8% (inactive).

With `Nc1nc2c3ccccc3nc(Cc3ccccc3)n2n1` the inhibition was 3.4% (inactive).

In the case of `O=S(=O)(c1ccc2c(c1)OCCCO2)N1CCNCC1`, the inhibition is reported as 0.7% (inactive).

With `NC(=S)N/N=C/c1ccc(-c2cc(Cl)ccc2Cl)o1` the inhibition was -7.4% (inactive).

In the case of `Cc1cc(NC(=O)CSc2nc(-c3ccco3)cc(C(F)(F)F)n2)no1`, the inhibition is reported as -2.8% (inactive).

For `CC/C(=N\NC(=O)CNC(=O)/C=C/c1ccco1)c1ccccc1`, the inhibition was -9.3% (inactive).

With `O=C(OCn1ncc(Br)c(Br)c1=O)c1c(F)cccc1F` the inhibition was -3.7% (inactive).

In the case of `CCCOC(=O)c1ccc(NC(=O)Oc2ccccc2)cc1`, the inhibition is reported as -5.5% (inactive).

In the case of `N#CCc1nc2c3c4c(sc3ncn2n1)CCCC4`, the inhibition is reported as -15.1% (inactive).

For `CC(C)CCN1CC(C(=O)NCCC2=CCCCC2)CC1=O` (centres undefined), the inhibition was -12.9% (inactive).

For `CCc1ccc2oc(-c3cc(N)ccc3O)nc2c1`, the inhibition was -11.6% (inactive).

With `O=C(Nc1ncc2c(n1)CC(c1ccco1)CC2=O)c1ccc(Cl)cc1` (centres undefined) the inhibition was -4.9% (inactive).

With `COc1ccccc1-n1cnc2cc(NCc3ccco3)ccc21` the inhibition was 10.7% (inactive).

For `Cc1ccc(-c2nc(NC(=O)c3nn(C)cc3[N+](=O)[O-])sc2C)cc1`, the inhibition was 5.1% (inactive).

With `CCCCOCCCNC(=O)c1cccs1` the inhibition was -7.7% (inactive).

In the case of `CCOc1ccc(N2C(=O)CSC2c2ccncc2)cc1` (centres undefined), the inhibition is reported as 4.4% (inactive).

With `COC(=O)COc1ccc(=O)n(-c2ccccc2)n1` the inhibition was -8.8% (inactive).

In the case of `O=C(CS(=O)c1ccc(C(F)(F)F)cc1[N+](=O)[O-])Oc1ccc(Cl)cc1` (centres undefined), the inhibition is reported as 5.2% (inactive).

With `Cc1ccc(C)c(NC(=S)NC(NC(=O)Cc2cccc3ccccc23)C(Cl)(Cl)Cl)c1` (centres undefined) the inhibition was -16% (inactive).

With `C=CCNC(=O)c1nn2cccnc2c1Cl` the inhibition was -9.5% (inactive).

With `Cc1ccn2c(NC(=O)c3ccco3)c(-c3ccccc3)nc2c1` the inhibition was 12.5% (inactive).

With `Cc1nn(CC(=O)Nc2ccc(C(=O)N(C)C)cc2)c(=O)c2ccccc12` the inhibition was 4.3% (inactive).

With `O=C1c2cccc3c([N+](=O)[O-])ccc(c23)C(=O)N1c1nccs1` the inhibition was -0.1% (inactive).

For `CC(=O)Nc1ccc(NC2(C)C(=O)c3ccccc3C2=O)cc1`, the inhibition was 0.7% (inactive).

With `COc1ccc(NC(=O)N2CCn3c2nc2ccccc23)cc1` the inhibition was 5% (inactive).

In the case of `CCOC1=NC(C(=O)O)c2ccccc2/C(=C(/C)Cl)N1` (centres undefined), the inhibition is reported as -4.3% (inactive).

In the case of `CCOc1ccccc1N1CCN(C(=O)c2cccc(-c3ccc(O)cc3)c2)CC1`, the inhibition is reported as 6.2% (inactive).

In the case of `N#Cc1c(N)nc(SCC(=O)NCc2ccc3c(c2)OCO3)c(C#N)c1-c1cccs1`, the inhibition is reported as 0.2% (inactive).

With `Cc1cccc(NC(=O)CC2SC(=O)N(c3ccccc3)C2=O)c1` (centres undefined) the inhibition was 1.5% (inactive).

For `Cc1ccccc1Cn1nc(C)c(NC(=O)c2cc(-c3cccs3)on2)c1C`, the inhibition was 3.8% (inactive).

For `CCCC(=O)Nc1ccc(Cl)c(NC(=O)CC)c1`, the inhibition was -2% (inactive).

With `CCCc1sc(N/N=C/c2ccccn2)nc1-c1ccc(Br)cc1` the inhibition was -11.5% (inactive).

With `Cc1ccc(-n2c([O-])nc(-[n+]3ccccc3)c2C=O)cc1` the inhibition was -7.2% (inactive).

With `Cc1ccccc1-c1cc(-c2ccccc2O)on1` the inhibition was -5.9% (inactive).

In the case of `O=C(O)Cc1ccc(NC(=O)C2CC=CCC2C(=O)O)cc1` (centres undefined), the inhibition is reported as -9.1% (inactive).

For `COc1cccc(OC)c1NC(=O)CN1CCC(NC(=O)c2cccc(F)c2)CC1`, the inhibition was 0.4% (inactive).

In the case of `COc1ccccc1OCCn1cc(C(=O)c2ccco2)c2ccccc21`, the inhibition is reported as 3.7% (inactive).

In the case of `C#CC(=O)N(c1cccc(OC)c1)C(C(=O)NC1CCCC1)c1cccs1` (centres undefined), the inhibition is reported as -5.8% (inactive).

In the case of `Cn1c(NCc2c[nH]c3ccccc23)nc2ccccc21`, the inhibition is reported as -13.6% (inactive).

For `CCOC(=O)N1CCC(NC(=O)c2ccc(CS(=O)(=O)c3ccc(OC)cc3)o2)CC1`, the inhibition was -7.4% (inactive).

In the case of `FC(F)(F)c1cc(-c2ccc3c(c2)OCO3)nc(NCc2ccco2)n1`, the inhibition is reported as -1.9% (inactive).

For `CC(=O)NC1CC2CCCC(C1)N2` (centres undefined), the inhibition was -18.6% (inactive).

With `CCOC(=O)C1=C(CSc2nc3c(cc2C#N)CN(C)CC3)OC(N)=C(C#N)C1c1ccccc1` (centres undefined) the inhibition was 1.4% (inactive).

For `CC(=O)Nc1ccc(S(=O)(=O)n2cnc(C)c2)cc1`, the inhibition was 6.7% (inactive).

For `Cc1cccc(N=C2NC(=O)CS2)c1C`, the inhibition was 7% (inactive).

In the case of `O=Cc1cc2ccccc2nc1SCc1ccc(Cl)cc1`, the inhibition is reported as 8.6% (inactive).

With `CCOC(=O)c1cnc(-n2nc(C)cc2C)nc1N1CCOCC1` the inhibition was 8.4% (inactive).

With `Cc1ccc(C(=O)NCCCn2ccnc2)cn1` the inhibition was 1.3% (inactive).

In the case of `COC(=O)c1cscc1NC(C)=O`, the inhibition is reported as 13.2% (inactive).

In the case of `N#Cc1c(NCc2ccccc2)ccnc1NCc1cccnc1`, the inhibition is reported as 1.2% (inactive).

With `CCCCn1cnc2c1c(=O)[nH]c(=O)n2CCCC` the inhibition was -11.3% (inactive).

With `O=C(Nc1ccccc1)/C(=C\c1ccc2c(c1)OCO2)NC(=O)c1ccco1` the inhibition was -0.8% (inactive).

For `Clc1ccc(-n2ncc3c(NCc4ccc5c(c4)OCO5)ncnc32)cc1`, the inhibition was 2.6% (inactive).

In the case of `COc1ccc(OC)c(C(=O)c2coc3ccc(O)cc23)c1`, the inhibition is reported as -8.7% (inactive).

In the case of `Nn1c(SCC(=O)Nc2ccc3c(c2)OCCO3)nnc1C(F)(F)F`, the inhibition is reported as -22.1% (inactive).

For `Cc1ccc(O)c(NC(=O)CCC2CCCCC2)c1`, the inhibition was -15.6% (inactive).

For `CCCCSc1nc(C)cc(SCC(=O)N/N=C/c2cccc(OC)c2O)n1`, the inhibition was -6.7% (inactive).

In the case of `C=CCn1c(SCc2c(C)noc2C)nc2ccccc2c1=O`, the inhibition is reported as 4.2% (inactive).

In the case of `COc1ccc(C(c2sc3ncnn3c2O)N2CC(C)OC(C)C2)cc1OC` (centres undefined), the inhibition is reported as 5% (inactive).

In the case of `CCOC(=O)C1CCN(Cc2ccccc2C)CC1`, the inhibition is reported as 5.4% (inactive).

In the case of `CCCc1nc(SCC(=O)N2CCc3ccccc32)c2c(C)c(C)sc2n1`, the inhibition is reported as 2.2% (inactive).

For `CCc1cccc(CC)c1N(COC)C(=O)Cn1ccccc1=N`, the inhibition was -4.4% (inactive).

With `Cc1nn(-c2cc(C)c3ccccc3n2)c2c1C1C(C2)C1(C)C` (centres undefined) the inhibition was 3.3% (inactive).

For `O=C1CCSc2cccc3cccc(c23)N1`, the inhibition was -5.2% (inactive).

In the case of `CC1CCCN(c2nc3ccsc3c(=O)s2)C1` (centres undefined), the inhibition is reported as 2.9% (inactive).

For `COC(=O)c1[nH]c2cc(OC)ccc2c1NC(=O)CN1CCC(C(N)=O)(N2CCCCC2)CC1`, the inhibition was 3.6% (inactive).

In the case of `COC(=O)c1sccc1NC(=O)c1ccc(Br)s1`, the inhibition is reported as 1.8% (inactive).

For `COc1ccc(Nc2cc(C(=O)NCCCN3CCOCC3)c3ccccc3n2)cc1OC`, the inhibition was 4.3% (inactive).

With `CC1=C([N+](=O)[O-])C(c2ccccc2)C2=C(N1)c1ccccc1C2=O` (centres undefined) the inhibition was 8.7% (inactive).

With `CC1C(c2ccccc2)C(C#N)(C#N)C2(C#N)C(=O)NC1(N)C2C` (centres undefined) the inhibition was 0.4% (inactive).

For `Cc1ncc(CO)c2cc(C(N)=O)c(=Nc3ccccc3)oc12`, the inhibition was -1.3% (inactive).

For `Cc1ccc(NS(=O)(=O)c2cc(C(=O)NCCSC3CCCCC3)ccc2C)cc1`, the inhibition was -1.3% (inactive).

For `CCCn1c(SCC(=O)NCc2ccco2)nnc1C(C)C`, the inhibition was -5.7% (inactive).

In the case of `CC1=C(C#N)C(Nc2cccc(C)n2)(C(F)(F)F)C(=O)N1` (centres undefined), the inhibition is reported as 7% (inactive).

With `COCCNC(=O)C(c1cccs1)N(Cc1cccs1)C(=O)Cn1nnc2ccccc21` (centres undefined) the inhibition was -4.6% (inactive).

For `Nc1ccccc1NC(=O)c1ccccc1N`, the inhibition was 3.6% (inactive).

With `Cc1cc(NC(=O)CSc2nc(-c3cccs3)cc(C(F)(F)F)n2)no1` the inhibition was -6.4% (inactive).

In the case of `C=CCc1ccccc1OCC(O)CNC` (centres undefined), the inhibition is reported as 2.3% (inactive).

With `COc1ccccc1-c1cc(C(F)(F)F)nc(S(=O)(=O)CCCC(=O)N2CCCCC2C)n1` (centres undefined) the inhibition was 7.4% (inactive).

In the case of `Cn1cc([N+](=O)[O-])c(C(=O)Nc2ccc3c(c2)OCCO3)n1`, the inhibition is reported as -7.4% (inactive).

For `C/C(=N\O)c1ccc2c3ccccc3n(C)c2c1`, the inhibition was -20.9% (inactive).

For `CC(=O)c1cccc(Nc2nc(-c3cccc([N+](=O)[O-])c3)cs2)c1`, the inhibition was -7.7% (inactive).

In the case of `O=c1cc(C(Cl)(Cl)Cl)oc2c1ccc1ccccc12`, the inhibition is reported as -13.6% (inactive).
